Test results from PubChem BioAssay (NCI).
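Results reflect a 48-hour exposure of cells in 96-well plates to compound at five concentrations. Abbreviation: GI50, concentration required for 50% inhibition of growth. TGI denotes the concentration required for complete inhibition of growth.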

Assays:
Test in all cases: NCI tumour cell line growth inhibition, 48 h
MDA-MB-468 breast = test system: MDA-MB-468 breast
786-0 renal = test system: 786-0 renal
A498 renal = test system: A498 renal
ACHN renal = test system: ACHN renal
DU-145 prostate = test system: DU-145 prostate
EKVX NSCLC = test system: EKVX NSCLC
HCC-2998 colon = test system: HCC-2998 colon
HCT-15 colon = test system: HCT-15 colon
HS 578T breast = test system: HS 578T breast
KM12 colon = test system: KM12 colon
MALME-3M melanoma = test system: MALME-3M melanoma
MCF7 breast = test system: MCF7 breast
MDA-MB-231 breast = test system: MDA-MB-231 breast
NCI-H226 lung = test system: NCI-H226 lung
NCI-H23 lung = test system: NCI-H23 lung
OVCAR-3 ovarian = test system: OVCAR-3 ovarian
OVCAR-4 ovarian = test system: OVCAR-4 ovarian
OVCAR-5 ovarian = test system: OVCAR-5 ovarian
OVCAR-8 ovarian = test system: OVCAR-8 ovarian
RXF 393 renal = test system: RXF 393 renal
SK-MEL-2 melanoma = test system: SK-MEL-2 melanoma
SK-MEL-5 melanoma = test system: SK-MEL-5 melanoma
SK-OV-3 ovarian = test system: SK-OV-3 ovarian
SNB-19 CNS = test system: SNB-19 CNS
SNB-75 CNS = test system: SNB-75 CNS
SW-620 colon = test system: SW-620 colon
T-47D breast = test system: T-47D breast
TK-10 renal = test system: TK-10 renal
UO-31 renal = test system: UO-31 renal

COc1ccc(-c2cc(/C=C/C(=O)c3ccc(N)cc3)[nH]n2)cc1OC
GI50 (MDA-MB-468 breast): 1.55 µM
TGI (MDA-MB-468 breast): 3.48 µM

COc1cc(-c2nccc3[nH]c(-c4ccc5cc[nH]c5c4)nc23)cc(OC)c1OC
GI50 (MDA-MB-468 breast): 0.0176 µM
TGI (MDA-MB-468 breast): 1.56 µM

COc1ccc2c(c1)c(/C=N/Nc1ccnc3cc(Cl)ccc13)cn2C
GI50 (MDA-MB-468 breast): 0.217 µM
TGI (MDA-MB-468 breast): 0.456 µM

COc1ccccc1C1c2cc3c(cc2OC2(OC)COC(=O)C12)OCO3 (centres undefined)
GI50 (MDA-MB-468 breast): 20.2 µM
TGI (MDA-MB-468 breast): 95.4 µM

COCCOC1=C(Cl)C(=O)c2ccccc2C1=O
GI50 (MDA-MB-468 breast): 1.59 µM
TGI (MDA-MB-468 breast): 3.22 µM

COc1cc2nnc3c4cccnc4[nH]c3c2cc1OC
GI50 (MDA-MB-468 breast): 0.225 µM
TGI (MDA-MB-468 breast): 1.22 µM

CC(=O)Oc1ccc(C2=Cc3ccc(OC(C)=O)cc3OC2C)cc1 (centres undefined)
GI50 (MDA-MB-468 breast): 5.96 µM
TGI (MDA-MB-468 breast): 51.4 µM

COc1cccc2nc(Nc3cccc(NC(=O)c4ccc(CN5CCCN(C)CC5)c(C(F)(F)F)c4)c3)ccc12
GI50 (786-0 renal): 1.72 µM
TGI (786-0 renal): 3.35 µM
GI50 (A498 renal): 13.5 µM
TGI (A498 renal): 31.4 µM
GI50 (ACHN renal): 1.87 µM
TGI (ACHN renal): 3.62 µM
GI50 (DU-145 prostate): 2.19 µM
TGI (DU-145 prostate): 4.91 µM
GI50 (EKVX NSCLC): 1.72 µM
TGI (EKVX NSCLC): 3.1 µM
GI50 (HCC-2998 colon): 1.71 µM
TGI (HCC-2998 colon): 3.09 µM
GI50 (HCT-15 colon): 1.62 µM
TGI (HCT-15 colon): 3.03 µM
GI50 (HS 578T breast): 2.46 µM
TGI (HS 578T breast): 8.09 µM
GI50 (KM12 colon): 2.49 µM
TGI (KM12 colon): 6.14 µM
GI50 (MALME-3M melanoma): 1.72 µM
TGI (MALME-3M melanoma): 3.12 µM
GI50 (MCF7 breast): 1.59 µM
TGI (MCF7 breast): 3 µM
GI50 (MDA-MB-231 breast): 1.83 µM
TGI (MDA-MB-231 breast): 3.4 µM
GI50 (MDA-MB-468 breast): 1.56 µM
TGI (MDA-MB-468 breast): 2.98 µM
GI50 (NCI-H226 lung): 1.94 µM
TGI (NCI-H226 lung): 4.65 µM
GI50 (NCI-H23 lung): 1.68 µM
TGI (NCI-H23 lung): 3.07 µM
GI50 (OVCAR-3 ovarian): 2.14 µM
TGI (OVCAR-3 ovarian): 5.45 µM
GI50 (OVCAR-4 ovarian): 2.67 µM
TGI (OVCAR-4 ovarian): 10.7 µM
GI50 (OVCAR-5 ovarian): 1.71 µM
TGI (OVCAR-5 ovarian): 3.29 µM
GI50 (OVCAR-8 ovarian): 2.03 µM
TGI (OVCAR-8 ovarian): 4.75 µM
GI50 (RXF 393 renal): 1.66 µM
TGI (RXF 393 renal): 3.24 µM
GI50 (SK-MEL-2 melanoma): 2.15 µM
TGI (SK-MEL-2 melanoma): 4.93 µM
GI50 (SK-MEL-5 melanoma): 1.71 µM
TGI (SK-MEL-5 melanoma): 3.08 µM
GI50 (SK-OV-3 ovarian): 4.33 µM
TGI (SK-OV-3 ovarian): 21.3 µM
GI50 (SNB-19 CNS): 1.72 µM
TGI (SNB-19 CNS): 3.17 µM
GI50 (SNB-75 CNS): 1.52 µM
TGI (SNB-75 CNS): 7.97 µM
GI50 (SW-620 colon): 1.75 µM
TGI (SW-620 colon): 3.24 µM
GI50 (T-47D breast): 5.43 µM
TGI (T-47D breast): 41.4 µM
GI50 (TK-10 renal): 4.91 µM
TGI (TK-10 renal): 19.3 µM
GI50 (UO-31 renal): 1.74 µM
TGI (UO-31 renal): 3.43 µM

CCN(CC)c1ccc2nc3ccc(=[N+](CC)CC)cc-3oc2c1
GI50 (MDA-MB-468 breast): 0.0631 µM
TGI (MDA-MB-468 breast): 0.231 µM

COc1ccc(C(O)c2cc3c(N)c(C(=O)Nc4cccc5ccccc45)sc3nc2C)cc1 (centres undefined)
GI50 (MDA-MB-468 breast): 2.64 µM
TGI (MDA-MB-468 breast): > 100 µM

CCc1ccc(Nc2cc(C)c3ccc(O)cc3n2)cc1
GI50 (MDA-MB-468 breast): 3.57 µM
TGI (MDA-MB-468 breast): 12.8 µM

Fc1ccc(NC(c2ccc(F)cc2)C2CCN(CCCCc3ccccc3)CC2)cc1 (centres undefined)
GI50 (MDA-MB-468 breast): 1.72 µM
TGI (MDA-MB-468 breast): 3.43 µM

Cc1cc(Br)c(NC(=O)c2c(-c3c(Cl)cccc3Cl)noc2C)c(Br)c1
GI50 (MDA-MB-468 breast): > 100 µM
TGI (MDA-MB-468 breast): > 100 µM

CCSCC1CC(O)(c2ccccc2)C(c2ccccc2)C(c2ccc(F)cc2)O1 (centres undefined)
GI50 (MDA-MB-468 breast): 2.94 µM
TGI (MDA-MB-468 breast): 10.4 µM

Cc1cnc(C(=O)NNc2nc3sc4c(c3c(=O)[nH]2)C(C)CCC4)cn1 (centres undefined)
GI50 (MDA-MB-468 breast): 1.81 µM
TGI (MDA-MB-468 breast): 6.08 µM

CC(=O)NC1C(O[C@H]2C[C@H]3[C@@H]4CC=C5C[C@@H](O)CC[C@]5(C)[C@H]4CC[C@]3(C)[C@H]2[C@H](C)C(=O)CCC(C)C)OCC(O)C1O (some centres undefined)
GI50 (MDA-MB-468 breast): 3.34 µM
TGI (MDA-MB-468 breast): 10.4 µM

Cn1ccnc1C(=O)/C=C/C=C/c1ccc(C(=O)Nc2ccc(F)cc2)cc1
GI50 (MDA-MB-468 breast): 1.51 µM
TGI (MDA-MB-468 breast): 10.5 µM

CCCCCCCCCCCCCCNC(=O)Nc1ccc(Cl)c(Cl)c1
GI50 (MDA-MB-468 breast): 2.82 µM
TGI (MDA-MB-468 breast): 9.82 µM

COc1cc(/C=C/c2cc(/C=C/c3ccc(O)c(OC)c3)n(C(=O)c3ccccc3Br)n2)ccc1O
GI50 (MDA-MB-468 breast): 2.24 µM
TGI (MDA-MB-468 breast): 5.81 µM

COc1ccccc1CNCCN1C(=O)c2ccc3c4c(ccc(c24)C1=O)C(=O)N(CCNCc1ccccc1OC)C3=O
GI50 (MDA-MB-468 breast): 0.426 µM
TGI (MDA-MB-468 breast): 0.893 µM

C#Cc1ccc(-n2c(/C=C/c3ccc(O)cc3)nc3ncccc3c2=O)cc1
GI50 (MDA-MB-468 breast): 2.31 µM
TGI (MDA-MB-468 breast): 7.08 µM

Nc1nc(=S)c2ncn(C3OC(COP(=O)(O)O)C(O)C3O)c2[nH]1 (centres undefined)
GI50 (MDA-MB-468 breast): 0.478 µM
TGI (MDA-MB-468 breast): 6.3 µM

S=C1SCN(Cc2ccccc2)CN1Cc1ccco1
GI50 (MDA-MB-468 breast): 1.04 µM
TGI (MDA-MB-468 breast): 13.5 µM

COc1ccccc1Oc1nccc(-c2c(-c3ccc(F)cc3)ncn2C2CCNCC2)n1
GI50 (MDA-MB-468 breast): 3.17 µM
TGI (MDA-MB-468 breast): 14.3 µM

CCC(c1ccccc1)c1noc(CCN(CC)CC)n1 (centres undefined)
GI50 (MDA-MB-468 breast): 2.46 µM
TGI (MDA-MB-468 breast): 8.05 µM

Nc1nccc(-c2c(-c3ccc(F)cc3)nn3cc(C(F)(F)F)ccc23)n1
GI50 (MDA-MB-468 breast): > 25 µM
TGI (MDA-MB-468 breast): > 25 µM

Clc1ccc2oc3c(NCCCn4ccnc4)c4ccccc4nc3c2c1
GI50 (MDA-MB-468 breast): 14.7 µM
TGI (MDA-MB-468 breast): 69.2 µM

CC[C@H](C)[C@H](NC(=O)[C@H]1CCCCN1C)C(=O)N(C)[C@H](C[C@@H](OC(C)=O)c1nc(C(=O)NC23CC(C(=O)OC)(C2)C3)cs1)C(C)C
GI50 (MDA-MB-468 breast): 0.000292 µM
TGI (MDA-MB-468 breast): 0.0714 µM

COc1ccc(-c2[nH]c3ccc(OC)cc3c2C=C(C#N)C#N)cc1
GI50 (MDA-MB-468 breast): 0.494 µM
TGI (MDA-MB-468 breast): > 100 µM

ClCCOCCn1cnc2c(Cl)nc(Cl)nc21
GI50 (MDA-MB-468 breast): 3.16 µM
TGI (MDA-MB-468 breast): 25 µM

Cc1cccc(Cn2cc(CO)c3cnccc32)c1
GI50 (MDA-MB-468 breast): 6.34 µM
TGI (MDA-MB-468 breast): 43.3 µM

O=C(COc1ccc(/C=C2\Oc3ccccc3C2=O)cc1)Nc1nc2ccccc2s1
GI50 (MDA-MB-468 breast): 0.487 µM
TGI (MDA-MB-468 breast): 75.2 µM

CC(C)[C@@H]1CC[C@]2(CO2)[C@@H]2C(=O)OCC(C(=O)O)=C[C@H]21
GI50 (MDA-MB-468 breast): 0.443 µM
TGI (MDA-MB-468 breast): > 27.2 µM

CNCc1ccc(-c2cc(-c3nc(-c4ccc(S(=O)(=O)C(C)C)cc4)cnc3N)on2)cc1
GI50 (MDA-MB-468 breast): 2.26 µM
TGI (MDA-MB-468 breast): 20.3 µM

CCCCS(=O)c1sc2nc(-c3cccs3)cc(-c3ccccc3)c2c1N (centres undefined)
GI50 (MDA-MB-468 breast): 9.93 µM
TGI (MDA-MB-468 breast): 67.3 µM

CCNC(=O)N1CCc2cc(OC)c(OCCc3ccc(OC)cc3)cc2C1c1ccc(Cl)cc1C (centres undefined)
GI50 (MDA-MB-468 breast): 2.01 µM
TGI (MDA-MB-468 breast): 6.43 µM

O=C(Nc1ccc(OC(F)(F)Cl)cc1)c1cnc(N2CC[C@@H](O)C2)c(-c2ccn[nH]2)c1
GI50 (MDA-MB-468 breast): 4.89 µM
TGI (MDA-MB-468 breast): 23.1 µM

O=C1c2cc3c(cc2-c2c1c1ccc(Cl)cc1c(=O)n2C[C@H](O)CO)OCO3
GI50 (MDA-MB-468 breast): 0.0174 µM
TGI (MDA-MB-468 breast): 0.0553 µM

COc1ccc(-c2nc3ccc(Cc4ccc5nc(-c6ccc(OC)cc6)[nH]c5c4)cc3[nH]2)cc1
GI50 (MDA-MB-468 breast): 0.026 µM
TGI (MDA-MB-468 breast): 0.155 µM

CCCCCC(=O)O[C@]1(C(C)=O)CCC2C3CCC4=CC(=O)CC[C@]4(C)C3CC[C@@]21C (some centres undefined)
GI50 (MDA-MB-468 breast): 1.73 µM
TGI (MDA-MB-468 breast): 6.79 µM

COc1ccc(/C=C2\CCC/C(=C\c3ccc(OC)c(OC)c3)C2=O)cc1OC
GI50 (MDA-MB-468 breast): 0.94 µM
TGI (MDA-MB-468 breast): 5.47 µM

Cc1cc(Cl)nc(N(CCNc2ccnc3cc(Cl)ccc23)Cc2ccco2)n1
GI50 (MDA-MB-468 breast): 1.62 µM
TGI (MDA-MB-468 breast): 3.46 µM

CN1CCN(c2c(F)cc(NC3=C(Cl)C(=O)c4ncccc4C3=O)cc2F)CC1
GI50 (MDA-MB-468 breast): 1.36 µM
TGI (MDA-MB-468 breast): 3.21 µM

COCCN(Cc1ccc(F)cc1)c1ccc(CO)c(Cl)c1
GI50 (MDA-MB-468 breast): 0.0406 µM
TGI (MDA-MB-468 breast): 0.163 µM
